Laboratory results as given in patent US20240116985A1, “STAPLED PEPTIDES AND METHODS THEREOF” (priority 2020, published 2024).
Read-outs that look alike come from different tables or passages of the source.

Key:
[1] = molecular target: T1, beta-catenin/TCF4 engagement (Homo sapiens, UniProt P35222); experiment: Nano-BRET target engagement assay (B-cat-Halo & TCF4-Luc in HEK293 cells); format: cell-based; details: absolute IC50; read-out: NanoBRET Abs IC50
T1 construct: expressed in transfected cells; host or cells: HEK293
T1 sequence (P35222 1-781): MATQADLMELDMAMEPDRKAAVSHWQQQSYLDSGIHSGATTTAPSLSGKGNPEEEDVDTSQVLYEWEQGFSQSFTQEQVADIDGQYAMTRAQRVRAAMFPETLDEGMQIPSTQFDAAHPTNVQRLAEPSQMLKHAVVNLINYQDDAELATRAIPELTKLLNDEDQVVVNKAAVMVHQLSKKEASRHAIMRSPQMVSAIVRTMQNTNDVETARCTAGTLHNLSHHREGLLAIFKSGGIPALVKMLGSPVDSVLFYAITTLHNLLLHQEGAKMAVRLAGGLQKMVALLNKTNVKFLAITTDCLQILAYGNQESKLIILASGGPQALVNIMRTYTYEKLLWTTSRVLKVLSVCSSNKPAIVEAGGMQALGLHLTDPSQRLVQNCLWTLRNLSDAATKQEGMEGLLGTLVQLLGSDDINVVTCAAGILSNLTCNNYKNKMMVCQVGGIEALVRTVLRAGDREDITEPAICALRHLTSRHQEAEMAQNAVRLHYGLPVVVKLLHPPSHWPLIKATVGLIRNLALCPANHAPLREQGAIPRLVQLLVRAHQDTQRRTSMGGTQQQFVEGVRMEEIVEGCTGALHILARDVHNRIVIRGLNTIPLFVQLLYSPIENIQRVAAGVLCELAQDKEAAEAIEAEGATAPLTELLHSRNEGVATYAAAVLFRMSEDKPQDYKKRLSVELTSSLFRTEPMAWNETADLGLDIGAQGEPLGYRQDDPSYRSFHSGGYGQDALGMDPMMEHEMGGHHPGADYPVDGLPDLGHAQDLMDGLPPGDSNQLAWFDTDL

[2] = molecular target: T2, full-length beta-Catenin (Uniprot ID P35222) (Homo sapiens, UniProt P35222); experiment: Fluorescence polarization IC50 (beta-catenin / 5FAM-TCF4 10-53 competition); format: binding; details: read-out: beta-Catenin FP IC50
T2 construct: 10 nM full-length beta-Catenin (Uniprot ID P35222)
T2 sequence (P35222 1-781): T1 sequence (P35222 1-781)

[3] = tested on: TCF/LEF luciferase Reporter in DLD1 cells; experiment: TCF reporter assay (DLD1 TCF/LEF luciferase reporter, Bright-Glo); format: cell-based
From the text: Those skilled in the art will appreciate that other suitable reagents may be utilized and various parameters may be adjusted.
DLD1 reporter cell line was generated by using TCF/LEF luciferase Reporter Lentivirus (BPS Bioscience Catalog #79787). Parental DLD1 cells (ATCC@ CCL-221) were transfected with the lentivirus and followed by 3-day puromycin selection. Single clone was selected for Reporter assay.
On Day 1, cultured cells in flasks that are no more than about 60-70% confluent were washed with PBS and typsinized in 3 mL/T75 until cells were free floating. Spin down cells for 5 minutes at 1100RPM. While cells spin, determine the number of plates (3 compounds per plate) needed. After spinning, aspirate the supernatant gently and add 10 mL media (RPMI+4% FBS), and re-suspend and mix the cells gently. Count the cells twice in the cell counter Countess and take average of both the counts, and determine how many cells are needed. After plating cells at 5000 cells/well, seal with aerseal film. 90 uL cells/well. Incubate at 37° C. overnight, tap gently to mix and don't stack plates.
On Day 2, compounds were added. Stock solution was 10 mM. Make the DMSO containing media by adding 36 uL DMSO to 10 mL of media. Make the dilution wells by transferring 100 uL DMSO+Media into rows B-F of a protein LoBind 96-well plate. Row G is empty. Add any extra DMSO+media to row H. Transfer 4 uL of stock solution to Row A. One compound per column. Add 196 uL media to Row A, no DMSO in the media. Concentration of Row A was 200 uM. Mix well and do a 6 pt, 1:2 serial dilution, mix ×10 per transfer and change tips before each transfer. Removed excess volume from final well (row F) and discard. Transfer 10 uL of the compound containing media to cells with a multichannel according to plate maps. Add 60 uL DMSO containing media to the DMSO wells. The edge wells were typically not used in the assay and could be ignored if needed or replaced with PBS, but there typically were liquids in the wells. Cover plates with breathable plate sealer and incubate overnight.
A 96-well plate may be utilized to prepare dilution series for up to 12 compounds, each with several concentrations (e.g., 200, 100, 50, 25, 12.5, 6.25 and 0 uM; can be utilized as 100× depending on final test concentrations).
0 uM is the DMSO control for the whole plate. Edge well filled with 90 uL cells+10 uL DMSO containing media.
On Day 3, luciferase levels were assessed using Bright-Glo (Promega). Equilibrate Bright-Glo to room temperature before addition. 7 mL of mixed Bright-Gbo per plate. Unused Bright-Glo could be store at −80° C. Reconstituted reagent can be stored for up to 1 month at −80° C., or after one freeze-thaw. When ready to read, remove plates from incubator and let sit at room temperature for 15 minutes. Typically stagger taking out plates if reading multiple plates before adding the Bright-Glo. Add 90 uL/well Bright-Glo and shake gently for 3 minutes. Read luminescence on GloMax immediately using ‘BrightGlo’ programs.
Cellular activity was assessed using CTG. Equilibrate CTG reagents to room temperature. Equilibrate plates to room temp, e.g. 15 min. Use same time length for all plates. Add CTG reagent, 25 uL if using undiluted, or 90 uL if diluted 1 to 4. Shake for 2 min to induce cell lysis. Allow plate to incubate at RT for 10 min to stabilize lumine sent signal. Read luminesence using program ‘CellTiter-Glo’. Use Prism to find the Absolute IC50 (AbsIC50=X[50]) of each compound.

[4] = read-out: DLD1 4% Abs IC50, DLD1 reporter, 4%, absolute IC50

| Structure (SMILES) | IC50 [1] [nM] | IC50 ([2]; fluorescence polarization) [nM] | IC50 [3, 4] [nM] | IC50 ([3]; read-out: DLD1 4% Abs IC50, DLD1 reporter assay, 4%, absolute IC50) [nM] | IC50 ([3]; absolute IC50, read-out: DLD1 reporter assay Abs IC50) [nM] | IC50 ([3]; read-out: DLD1 4% Abs IC50, DLD1 reporter, 4%) [nM] | IC50 [2] [nM] |
| --- | --- | --- | --- | --- | --- | --- | --- |
| CC(=O)N1CCC[C@]12CC=CCCCC1(CCCC=CCCCOC(=O)N3CC[C@@](C(=O)N[C@@H](Cc4ccccc4C(F)(F)F)C(=O)N[C@@H](Cc4csc5ccccc45)C(=O)N[C@@H](CO)C(N)=O)(C3)NC(=O)[C@H](CC(C)C)NC(=O)[C@H](Cc3ccccc3)NC(=O)[C@H](C)NC(=O)[C@H](C)NC(=O)[C@H](Cn3cc(C(C)(C)C(=O)O)nn3)NC(=O)[C@H](CC(=O)O)NC1=O)NC(=O)[C@H](CC(C)(C)C)NC(=O)[C@H](CC(=O)O)NC2=O (stereo partly drawn) [I-2374, Ac-PL3-Asp-Npg-B5-Asp-[CMe2CO2H]TriAzDap-Ala-Ala-Phe-Leu-PyrS2-2F3MeF-BztA-Ser-NH2] | 3400 | 7 | 2600 | – | – | – | – |
| CC(=O)N1CCC[C@]12CC=CCCCC1(CCCC=CCCCOC(=O)N3CC[C@@](C(=O)N[C@@H](Cc4ccccc4C(F)(F)F)C(=O)N[C@@H](Cc4csc5ccccc45)C(=O)N[C@@H](CCC(N)=O)C(=O)N[C@H](C(=O)N[C@@H](C)C(N)=O)C(C)C)(C3)NC(=O)[C@H](CC(C)C)NC(=O)[C@H](Cc3ccccc3)NC(=O)[C@H](C)NC(=O)[C@H](C)NC(=O)[C@H](Cc3cccc(C(=O)O)c3)NC(=O)[C@H](CC(=O)O)NC1=O)NC(=O)[C@H](CC(C)(C)C)NC(=O)[C@H](CC(=O)O)NC2=O (stereo partly drawn) [I-2401, Ac-PL3-Asp-Npg-B5-Asp-3COOHF-Ala-Ala-Phe-Leu-PyrS2-2F3MeF-BztA-Gln-Val-Ala-NH2] | 4400 | 37 | 800 | – | – | – | – |
| CC(=O)N1CCC[C@]12CC=CCCCC1(CCCC=CCCCOC(=O)N3CC[C@@](C(=O)N[C@@H](Cc4ccccc4C(F)(F)F)C(=O)N[C@@H](Cc4csc5ccccc45)C(=O)N[C@@H](CCC(N)=O)C(=O)N[C@@H](CC(C)C)C(=O)N[C@H](C)C(N)=O)(C3)NC(=O)[C@H](CC(C)C)NC(=O)[C@H](Cc3ccccc3)NC(=O)[C@H](C)NC(=O)[C@H](C)NC(=O)[C@H](Cc3cccc(C(=O)O)c3)NC(=O)[C@H](CC(=O)O)NC1=O)NC(=O)[C@H](CC(C)(C)C)NC(=O)[C@H](CC(=O)O)NC2=O (stereo partly drawn) [I-2395, Ac-PL3-Asp-Npg-B5-Asp-3COOHF-Ala-Ala-Phe-Leu-PyrS2-2F3MeF-BztA-Gln-Leu-dAla-NH2] | 5500 | 28 | 1200 | – | – | – | – |
| CC(=O)N1CCC[C@]12CC=CCCCC1(CCCC=CCCCOC(=O)N3CC[C@@](C(=O)N[C@@H](Cc4ccccc4Cl)C(=O)N[C@@H](Cc4csc5ccccc45)C(=O)N[C@H](CO)[C@@H](C)O)(C3)NC(=O)[C@H]([C@@H](C)O)NC(=O)[C@H](Cc3ccccc3)NC(=O)[C@H](C)NC(=O)[C@H](C)NC(=O)[C@H](CC(=O)O)NC(=O)[C@H](CC(=O)O)NC1=O)NC(=O)[C@H](CC(C)(C)C)NC(=O)[C@H](CC(=O)O)NC2=O (stereo partly drawn) [I-1245, Ac-PL3-Asp-Npg-B5-Asp-Asp-Ala-Ala-Phe-Thr-PyrS2-2C1F-BztA-Thro1] | 12200 | 9 | 4100 | – | 7300 | – | – |
| CC(=O)N1CCC[C@]12CC=CCCCC1(CCCC=CCCCOC(=O)N3CC[C@@](C(=O)N[C@@H](Cc4ccccc4C(F)(F)F)C(=O)N[C@@H](Cc4csc5ccccc45)C(=O)N[C@@H](CCC(N)=O)C(N)=O)(C3)NC(=O)[C@H](CC(C)C)NC(=O)[C@H](Cc3ccccc3)NC(=O)[C@H](C)NC(=O)[C@H](C)NC(=O)[C@H](Cc3cccc(C(=O)O)c3)NC(=O)[C@H](CC(=O)O)NC1=O)NC(=O)[C@H](CC(C)(C)C)NC(=O)[C@H](CC(=O)O)NC2=O (stereo partly drawn) [I-1466, Ac-PL3-Asp-Npg-B5-Asp-3COOHF-Ala-Ala-Phe-Leu-PyrS2-2F3MeF-BztA-Gln-NH2] | – | – | 700 | – | – | – | 10 |
| CC(C)C[C@H](NC(=O)[C@]12CCN(C1)C(=O)OCCCCCCCCC1(CCCCCCc3ccccc3C(=O)N3CCC[C@@]3(C)C(=O)N[C@@H](CC(=O)O)C(=O)N1)C(=O)N[C@@H](C)C(=O)N[C@@H](CC(=O)O)C(=O)N[C@@H](CC(=O)O)C(=O)N[C@@H](C)C(=O)N[C@@H](C)C(=O)N[C@@H](Cc1ccccc1)C(=O)N2)C(=O)N[C@@H](Cc1ccsc1)C(=O)N[C@@H](Cc1csc2ccccc12)C(=O)N[C@@H](CCC(N)=O)C(N)=O (stereo partly drawn) [I-2606, BzAm2Allyl-MePro-Asp-B5-Ala-Asp-Asp-Ala-Ala-Phe-PyrS2-Leu-3Thi-BztA-Gln-NH2] | – | 734 | – | – | – | > 20000 | – |

Second part, led by results:

| IC50 [1] [nM] | IC50 ([2]; fluorescence polarization) [nM] | IC50 [3, 4] [nM] | IC50 ([3]; read-out: DLD1 4% Abs IC50, DLD1 reporter assay, 4%, absolute IC50) [nM] | IC50 ([3]; absolute IC50, read-out: DLD1 reporter assay Abs IC50) [nM] | IC50 ([3]; read-out: DLD1 4% Abs IC50, DLD1 reporter, 4%) [nM] | Structure (SMILES) | IC50 [2] [nM] |
| --- | --- | --- | --- | --- | --- | --- | --- |
| 4300 | 12 | – | 2700 | – | – | CC(=O)N1CCC[C@]12CC=CCCCC1(CCCC=CCCCOC(=O)N3CC[C@@](C(=O)N[C@@H](Cc4ccsc4)C(=O)N[C@@H](Cc4csc5ccccc45)C(=O)N[C@@H](CCC(N)=O)C(N)=O)(C3)NC(=O)[C@H](CC(C)C)NC(=O)[C@H](Cc3ccccc3)NC(=O)[C@H](C)NC(=O)[C@H](C)NC(=O)[C@H](CN(CCCC(F)(F)F)CC(=O)O)NC(=O)[C@H](CC(=O)O)NC1=O)NC(=O)[C@H](CC(C)(C)C)NC(=O)[C@H](CC(=O)O)NC2=O (stereo partly drawn) [I-1629, Ac-PL3-Asp-Npg-B5-Asp-[Tfb]GA-Ala-Ala-Phe-Leu-PyrS2-3Thi-BztA-Gln-NH2] | – |
| 17100 | 5 | 9500 | – | – | – | CC(=O)N1CCC[C@]12CC=CCCCC1(CCCC=CCCCOC(=O)N3CC[C@@](C(=O)N[C@@H](Cc4ccsc4)C(=O)N[C@@H](Cc4csc5ccccc45)C(=O)N[C@@H](CCC(N)=O)C(N)=O)(C3)NC(=O)[C@H](CC(C)C)NC(=O)[C@H](Cc3ccccc3)NC(=O)[C@H](C)NC(=O)[C@H](C)NC(=O)[C@H](Cn3cc(C4(C(=O)O)CC4)nn3)NC(=O)[C@H](CC(=O)O)NC1=O)NC(=O)[C@H](CC(C)(C)C)NC(=O)[C@H](CC(=O)O)NC2=O (stereo partly drawn) [I-2445, Ac-PL3-Asp-Npg-B5-Asp-[CCpCO2H]TriAzDap-Ala-Ala-Phe-Leu-PyrS2-3Thi-BztA-Gln-NH2] | – |
| – | 133 | > 20000 | – | – | – | CC(=O)N1CCC[C@]12CC=CCCCC1(CCCC=CCCCOC(=O)N3CC[C@@](C(=O)N[C@@H](Cc4ccsc4)C(=O)N[C@@H](Cc4csc5ccccc45)C(=O)N[C@@H](CCCNC(=N)N)C(N)=O)(C3)NC(=O)[C@H](CC(N)=O)NC(=O)[C@H](Cc3ccccc3)NC(=O)[C@H](C)NC(=O)C(C)(C)NC(=O)[C@H]([C@@H](C)O)NC(=O)[C@H](CC(N)=O)NC1=O)NC(=O)[C@H](CC(C)(C)C)NC(=O)[C@H](CC(=O)O)NC2=O (stereo partly drawn) [I-2413, Ac-PL3-Asp-Npg-B5-Asn-Thr-Aib-Ala-Phe-Asn-PyrS2-3Thi-BztA-Arg-NH2] | – |
